Measurements as given in patent US8652444B2, “Oral compositions containing biphenol antibacterial compounds” (Colgate-Palmolive Company, priority 2004, dated 2014).
Converted amounts (≈) assume the structure as drawn.

Experiments:
Format in all cases: cell-based
P. nigresc. = test: MIC50 against bacteria; conditions: unit assumed
Experimental: (§1) MIC50 values against a variety of bacteria are measured for the dipropyl and dibutyl derivatives and compared to those for triclosan.

E. corrodens = test: MIC50 against bacteria; conditions: unit assumed
Experimental: as §1

F. nucleatum = test: MIC50 against bacteria; conditions: unit assumed
Experimental: as §1

B. cereus = test: MIC50 against bacteria; conditions: unit assumed
Experimental: as §1

S. gordonii = test: MIC50 against bacteria; conditions: unit assumed
Experimental: as §1

P. intermedia = test: MIC50 against bacteria; conditions: unit assumed
Experimental: as §1

A. actino. = test: MIC50 against bacteria; conditions: unit assumed
Experimental: as §1

M. catarrhalis = test: MIC50 against bacteria; conditions: unit assumed
Experimental: as §1

B. subtilis = test: MIC50 against bacteria; conditions: unit assumed
Experimental: as §1

S. mutans = test: MIC50 against bacteria; conditions: unit assumed
Experimental: as §1

S. aureus = test: MIC50 against bacteria; conditions: unit assumed
Experimental: as §1

P. gingivalis = test: MIC50 against bacteria; conditions: unit assumed
Experimental: as §1

[1] = test system: staphylococcus, streptococcus, and bacillus bacteria; test: MIC50 against a variety of bacteria, comparison; conditions: against a number of staphylococcus, streptococcus, and bacillus bacteria of Table I; comparable to triclosan
Experimental: as §1

certain oral bacteria = test: MIC50 against certain oral bacteria, comparison
Experimental: as §1

Row | SMILES | MIC50 (P. nigresc.) | MIC50 (E. corrodens) | MIC50 (F. nucleatum) | MIC50 (B. cereus) | MIC50 (S. gordonii) | MIC50 (P. intermedia) | MIC50 (A. actino.) | MIC50 (M. catarrhalis) | MIC50 (B. subtilis) | MIC50 (S. mutans) | MIC50 (S. aureus) | MIC50 (P. gingivalis) | MIC50 relative to the dipropyl derivative [1] | MIC50 relative to an analogous compound containing propyl groups (certain oral bacteria)
1 | CCCc1ccc(O)c(-c2cc(CCC)ccc2O)c1 [dipropyl derivative, 5,5′-propyl-2,2′-dihydroxy-1,1′-biphenyl] | 7.8 µg/mL (≈ 28.8 µM) | 1 µg/mL (≈ 3.7 µM) | > 500 µg/mL | > 500 µg/mL | > 500 µg/mL | 2 µg/mL (≈ 7.4 µM) | > 500 µg/mL | 7.8 µg/mL (≈ 28.8 µM) | > 500 µg/mL | > 500 µg/mL | > 500 µg/mL | 3.9 µg/mL (≈ 14.4 µM) |  | 
2 | CCCCc1ccc(O)c(-c2cc(CCCC)ccc2O)c1 [dibutyl derivative, 5,5′-dibutyl-2,2′-dihydroxy-1,1′-biphenyl] | 3.9 µg/mL (≈ 13.1 µM) | 0.5 µg/mL (≈ 1.68 µM) | > 500 µg/mL | 31.3 µg/mL (≈ 105 µM) | 31.3 µg/mL (≈ 105 µM) | 2 µg/mL (≈ 6.7 µM) | > 500 µg/mL | 15.6 µg/mL (≈ 52.3 µM) | 7.8 µg/mL (≈ 26.1 µM) | 3.9 µg/mL (≈ 13.1 µM) | 7.8 µg/mL (≈ 26.1 µM) | 2 µg/mL (≈ 6.7 µM) | over an order of magnitude less than that of the dipropyl derivative | lower
3 | Oc1cc(Cl)ccc1Oc1ccc(Cl)cc1Cl [triclosan] | 3.9 µg/mL (≈ 13.5 µM) | < 0.001 µg/mL | 1 µg/mL (≈ 3.45 µM) | 15.6 µg/mL (≈ 53.9 µM) | 7.8 µg/mL (≈ 26.9 µM) | 1 µg/mL (≈ 3.45 µM) | 0.125 µg/mL (≈ 0.432 µM) | < 0.001 µg/mL | 2 µg/mL (≈ 6.91 µM) | 7.8 µg/mL (≈ 26.9 µM) | 2 µg/mL (≈ 6.91 µM) | 0.5 µg/mL (≈ 1.73 µM) |  | 
